Entries after “also recorded” stand apart in the source; their conditions may differ. Like-named read-outs stand apart in the source and are kept apart here. Blank lines part the entries; values can stand above or below the compound they belong to.
What was measured:
[1] = reputed; EPO Publication No. 0184162; cited from earlier work
[2] = Solubility (physical characteristics); format: physicochemical; conditions: methanol
mouse T lymphocytes = assay: T-cell proliferation assay (ionomycin plus PMA induced T-cell stimulation, tritiated thymidine uptake); format: cell-based, mouse (C57B1/6); conditions: for IC50: T-cell proliferation
Protocol: The principle of this assay is to measure the proliferation of mouse T lymphocytes stimulated with the combination of ionomycin plus PMA. A positive sample in this assay will inhibit T-cell proliferation, as indicated by reduced tritiated thymidine uptake.
Purified L-687,795, as prepared by HPLC above, was dissolved in absolute ethanol at 10 mg/ml.
Spleens from C57B1/6 mice were taken under sterile conditions and gently dissociated in ice-cold RPMI 1640 culture medium (GIBCO, Grand Island, N.Y.) supplemented with 10% heat-inactivated fetal calf serum (GIBCO). Cells were pelleted by centrifugation at 1500 rpm for 8 minutes. Contaminating red cells were removed by treating the pellet with ammonium chloride lysing buffer (GIBCO) for 2 minutes at 4° C. Cold medium was added and cells were again centrifuged at 1500 rpm for 8 minutes. T lymphocytes were then isolated by separation of the cell suspension on nylon wool columns as follows: Nylon wool columns were prepared by packing approximately 4 grams of washed and dried nylon wool into 20 ml plastic syringes. The columns were sterilized by autoclaving at 250° F for 30 minutes. Nylon wool columns were wetted with warm (37° C) culture medium and rinsed with the same medium. Washed spleen cells resuspended in warm medium were slowly applied to the nylon wool. The columns were then incubated in an upright position at 37° C for 1 hour. Non-adherent T lymphocytes were eluted from the columns with warm culture medium and the cell suspensions were spun as above.
Purified T lymphocytes were resuspended at 2.5×10^5 cells/ml in complete culture medium composed of RPMI 1640 medium with 10% heat-inactivated fetal calf serum, […], 1 mM sodium pyruvate, 2×10^-5 M 2-mercaptoethanol and 50 μg/ml gentamycin. Ionomycin was added at 250 ng/ml and PMA at 10 ng/ml. The cell suspension was immediately distributed into 96 well flat-bottom microculture plates (Costar) at 200 μl/well. The control, being the medium without test drug, and various below-indicated dilutions of the sample (above-describedpurified L-687,795) to be tested were then added in triplicate wells at 20 μl/well. L-683,590 was used as a standard. The culture plates were then incubated at 37° C. in a humidified atmosphere of 5% CO2 -95% air for 44 hours. The proliferation of T lymphocytes was assessed by measurement of tritiated thymidine incorporation. After 44 hours of culturing, the cells were pulse-labelled with 2 μ Ci/well of tritiated thymidine (NEN, Cambridge, MA). After another 4 hours of incubation, cultures were harvested on glass fiber filters using a multiple sample harvester. Radioactivity of filter discs corresponding to individual wells was measured by standard liquid scintillation counting methods (Betacounter). Mean counts per minute of replicate wells were calculated and the results expressed as percent inhibition of tritiated thymidine uptake (proliferation) as follows: [formula]
1. Mouse T cell cultures were pulsed with ^3 Hthymidine for 4 hours
prior to harvesting at 48 hours.

SMILES: C=CC[C@@H]1/C=C(\C)C[C@H](C)C[C@H](OC)[C@H]2O[C@@](O)(C(=O)C(=O)N3CCCC[C@H]3C(=O)O[C@H](/C(C)=C/[C@@H]3CC[C@@H](O)[C@H](OC)C3)[C@H](C)[C@@H](O)CC1=O)[C@H](C)C[C@@H]2OC [FK-506]
times more effective than cyclosporin [1]: 100 times

Solubility [2]: Solubility in methanol
SMILES: CCC1C=C(C)CC(C)CC(O)C(O)C2CC(C)C(O)(O2)C(=O)C(=O)N2CCCCC2C(=O)OC(C(C)=CC2CCC(O)C(O)C2)C(C)C(O)CC1=O [L-687,795]
Inhibition of proliferation on addition of recombinant human IL2 (mouse T lymphocytes; 50 units/m recombinant human IL2 added at initiation of culture): reversed | inhibition at 0.39 µg/mL (mouse T lymphocytes; Mus musculus, T-lymphocyte, 390 ng/ml, ionomycin + PMA, 48 h): 0% | inhibition at 0.57 µg/mL (mouse T lymphocytes; Mus musculus, T-lymphocyte, 570 ng/ml, ionomycin + PMA, 48 h): 2% | inhibition at 0.87 µg/mL (mouse T lymphocytes; Mus musculus, T-lymphocyte, 870 ng/ml, ionomycin + PMA, 48 h): 29% | inhibition at 1.3 µg/mL (mouse T lymphocytes; Mus musculus, T-lymphocyte, 1,300 ng/ml, ionomycin + PMA, 48 h): 60% | inhibition at 1.9 µg/mL (mouse T lymphocytes; Mus musculus, T-lymphocyte, 1,900 ng/ml, ionomycin + PMA, 48 h): 78% | inhibition at 2.9 µg/mL (mouse T lymphocytes; Mus musculus, T-lymphocyte, 2,900 ng/ml, ionomycin + PMA, 48 h): 81% | inhibition at 4.4 µg/mL (mouse T lymphocytes; Mus musculus, T-lymphocyte, 4,400 ng/ml, ionomycin + PMA, 48 h): 88% | inhibition at 6.6 µg/mL (mouse T lymphocytes; Mus musculus, T-lymphocyte, 6,600 ng/ml, ionomycin + PMA, 48 h): 90% | inhibition at 10 µg/mL (mouse T lymphocytes; Mus musculus, T-lymphocyte, 10,000 ng/ml, ionomycin + PMA, 48 h): 91% | IC50 (mouse T lymphocytes; Mus musculus, T-lymphocyte, general range, read-out: IC50, generally in the range of): 1000 to 1400 nM | IC50 (mouse T lymphocytes; Mus musculus, T-lymphocyte, read-out: IC50): 1190 nM | inhibition of T-cell activation / immunosuppressive activity by the T-cell proliferation assay (mouse T lymphocytes; qualitative): positive inhibition of T-cell activation; also recorded: positive immunosuppressive activity

SMILES: CC[C@@H]1/C=C(\C)C[C@H](C)C[C@H](OC)[C@H]2O[C@@](O)(C(=O)C(=O)N3CCCC[C@H]3C(=O)O[C@H](/C(C)=C/[C@@H]3CC[C@@H](O)[C@H](OC)C3)[C@H](C)[C@@H](O)CC1=O)[C@H](C)C[C@@H]2OC [L-683,590, reference compound]
inhibition at 0.01 µg/mL (mouse T lymphocytes; Mus musculus, T-lymphocyte, 10 ng/ml, standard): 99%
